Test system: DENV-1/45AZ5
Test: NHP DENV-1 study, serum viral RNA RT-qPCR
Assay type: in vivo, rhesus macaques
Settings: for qRT-PCR Assay Average GE/mL: LOQ 100 GE/reaction
Description: WRAIR is fully accredited by AAALAC International.
Serum samples from macaques were checked for the presence of DENV-1 RNA. Viral RNA for RT–qPCR was extracted from 100–200 µl of serum using the QIAcube instrumentation and the QIAGEN Viral RNA extraction kits. The primers and fluorogenic probes used in the RT–qPCR assays have been previously described[63],[64]. DENV-1 RNA was detected in a 25 µl reaction containing 5 µl of extracted RNA sample, 10 pmol of dengue-specific primers and 5 pmol dengue probe in the reaction mixture from Superscript Ill Platinum One-Step Quantitative RT-PCR Kit (Invitrogen, Thermo Fisher Scientific), consisting of 0.5 µl Superscript III RT/Platinum mix, 12.5 µl 2× reaction mix and 0.05 µl ROX reference dye. The one-step RT–qPCR comprises a 30 min RT step at 50 °C and 2 min of Taq polymerase activation at 94 °C, followed by 40 cycles of PCR at 94 °C for 5 s and 53 °C for 35 s performed in an ABI 7500DX Fast Real Time PCR system. Each assay included positive, negative and non-template controls. The RNA copy number was calculated from a standard curve of tenfold serial dilutions made from RNA in vitro transcripts consisting of DENV-1 with known copy numbers. The LLOQ was 100 genomic copies per reaction.
This sample size was sufficient to detect a significant difference in the number of infected animals in each of the groups as low as 83%. […] Sample processing and conducting of assays was performed by laboratory technicians not involved in the treatment/manipulation of the animals.

COc1cc(N[C@H](C(=O)c2c[nH]c3ccc(OC(F)(F)F)cc23)c2ccc(Cl)cc2OC)cc(S(C)(=O)=O)c1 [JNJ-1802]
DENV RNA (6 mg per kg per day q.d.): remained undetectable during the complete study period
qRT-PCR Assay Result (animal R7, Day 0): Negative
qRT-PCR Assay Average GE/mL (animal R7, Day 0): 0.00E+00 GE/mL
qRT-PCR Assay Result (animal R7, Day 1): Negative
qRT-PCR Assay Average GE/mL (animal R7, Day 1): 0.00E+00 GE/mL
qRT-PCR Assay Result (animal R7, Day 2): Negative
qRT-PCR Assay Average GE/mL (animal R7, Day 2): 0.00E+00 GE/mL
qRT-PCR Assay Result (animal R7, Day 3): Negative
qRT-PCR Assay Average GE/mL (animal R7, Day 3): 0.00E+00 GE/mL
qRT-PCR Assay Result (animal R7, Day 4): Negative
qRT-PCR Assay Average GE/mL (animal R7, Day 4): 0.00E+00 GE/mL
qRT-PCR Assay Result (animal R7, Day 5): Negative
qRT-PCR Assay Average GE/mL (animal R7, Day 5): 0.00E+00 GE/mL
qRT-PCR Assay Result (animal R7, Day 6): Negative
qRT-PCR Assay Average GE/mL (animal R7, Day 6): 0.00E+00 GE/mL
qRT-PCR Assay Result (animal R7, Day 7): Negative
qRT-PCR Assay Average GE/mL (animal R7, Day 7): 0.00E+00 GE/mL
qRT-PCR Assay Result (animal R7, Day 8): Negative
qRT-PCR Assay Average GE/mL (animal R7, Day 8): 0.00E+00 GE/mL
qRT-PCR Assay Result (animal R7, Day 9): Negative
qRT-PCR Assay Average GE/mL (animal R7, Day 9): 0.00E+00 GE/mL
qRT-PCR Assay Result (animal R7, Day 10): Negative
qRT-PCR Assay Average GE/mL (animal R7, Day 10): 0.00E+00 GE/mL
qRT-PCR Assay Result (animal R7, Day 11): Negative
qRT-PCR Assay Average GE/mL (animal R7, Day 11): 0.00E+00 GE/mL
qRT-PCR Assay Result (animal R7, Day 14): Negative
qRT-PCR Assay Average GE/mL (animal R7, Day 14): 0.00E+00 GE/mL
qRT-PCR Assay Result (animal R7, Day 29): Negative
qRT-PCR Assay Average GE/mL (animal R7, Day 29): 0.00E+00 GE/mL
qRT-PCR Assay Result (animal R8, Day 0): Negative
qRT-PCR Assay Average GE/mL (animal R8, Day 0): 0.00E+00 GE/mL
qRT-PCR Assay Result (animal R8, Day 1): Negative
qRT-PCR Assay Average GE/mL (animal R8, Day 1): 0.00E+00 GE/mL
qRT-PCR Assay Result (animal R8, Day 2): Negative
qRT-PCR Assay Average GE/mL (animal R8, Day 2): 0.00E+00 GE/mL
qRT-PCR Assay Result (animal R8, Day 3): Negative
qRT-PCR Assay Average GE/mL (animal R8, Day 3): 0.00E+00 GE/mL
qRT-PCR Assay Result (animal R8, Day 4): Negative
qRT-PCR Assay Average GE/mL (animal R8, Day 4): 0.00E+00 GE/mL
qRT-PCR Assay Result (animal R8, Day 5): Negative
qRT-PCR Assay Average GE/mL (animal R8, Day 5): 0.00E+00 GE/mL
qRT-PCR Assay Result (animal R8, Day 6): Negative
qRT-PCR Assay Average GE/mL (animal R8, Day 6): 0.00E+00 GE/mL
qRT-PCR Assay Result (animal R8, Day 7): Negative
qRT-PCR Assay Average GE/mL (animal R8, Day 7): 0.00E+00 GE/mL
qRT-PCR Assay Result (animal R8, Day 8): Negative
qRT-PCR Assay Average GE/mL (animal R8, Day 8): 0.00E+00 GE/mL
qRT-PCR Assay Result (animal R8, Day 9): Negative
qRT-PCR Assay Average GE/mL (animal R8, Day 9): 0.00E+00 GE/mL
qRT-PCR Assay Result (animal R8, Day 10): Negative
qRT-PCR Assay Average GE/mL (animal R8, Day 10): 0.00E+00 GE/mL
qRT-PCR Assay Result (animal R8, Day 11): Negative
qRT-PCR Assay Average GE/mL (animal R8, Day 11): 0.00E+00 GE/mL
qRT-PCR Assay Result (animal R8, Day 14): Negative
qRT-PCR Assay Average GE/mL (animal R8, Day 14): 0.00E+00 GE/mL
qRT-PCR Assay Result (animal R8, Day 29): Negative
qRT-PCR Assay Average GE/mL (animal R8, Day 29): 0.00E+00 GE/mL
qRT-PCR Assay Result (animal R9, Day 0): Negative
qRT-PCR Assay Average GE/mL (animal R9, Day 0): 0.00E+00 GE/mL
qRT-PCR Assay Result (animal R9, Day 1): Negative
qRT-PCR Assay Average GE/mL (animal R9, Day 1): 0.00E+00 GE/mL
qRT-PCR Assay Result (animal R9, Day 2): Negative
qRT-PCR Assay Average GE/mL (animal R9, Day 2): 0.00E+00 GE/mL
qRT-PCR Assay Result (animal R9, Day 3): Negative
qRT-PCR Assay Average GE/mL (animal R9, Day 3): 0.00E+00 GE/mL
qRT-PCR Assay Result (animal R9, Day 4): Negative
qRT-PCR Assay Average GE/mL (animal R9, Day 4): 0.00E+00 GE/mL
qRT-PCR Assay Result (animal R9, Day 5): Negative
qRT-PCR Assay Average GE/mL (animal R9, Day 5): 0.00E+00 GE/mL
qRT-PCR Assay Result (animal R9, Day 6): Negative
qRT-PCR Assay Average GE/mL (animal R9, Day 6): 0.00E+00 GE/mL
qRT-PCR Assay Result (animal R9, Day 7): Negative
qRT-PCR Assay Average GE/mL (animal R9, Day 7): 0.00E+00 GE/mL
qRT-PCR Assay Result (animal R9, Day 8): Negative
qRT-PCR Assay Average GE/mL (animal R9, Day 8): 0.00E+00 GE/mL
qRT-PCR Assay Result (animal R9, Day 9): Negative
qRT-PCR Assay Average GE/mL (animal R9, Day 9): 0.00E+00 GE/mL
qRT-PCR Assay Result (animal R9, Day 10): Negative
qRT-PCR Assay Average GE/mL (animal R9, Day 10): 0.00E+00 GE/mL
qRT-PCR Assay Result (animal R9, Day 11): Negative
qRT-PCR Assay Average GE/mL (animal R9, Day 11): 0.00E+00 GE/mL
qRT-PCR Assay Result (animal R9, Day 14): Negative
qRT-PCR Assay Average GE/mL (animal R9, Day 14): 0.00E+00 GE/mL
qRT-PCR Assay Result (animal R9, Day 29): Negative

Source: publication PMC10033419, “Blocking NS3–NS4B interaction inhibits dengue virus in non-human primates” (Nature, 2023)
